Tests used:
MRSA ATCC 33591 = assay: Mouse septicemia model; settings: CD-1 female mice, MRSA ATCC 33591, 2.5 mg/kg intravenous one hour post infection
S. aureus ATCC 33591 = assay: Neutropenic mouse thigh infection model; format: in vivo; settings: single dose of 50 mg/kg, thigh load at 26 hours
Protocol: The compound of Formula (III) was next evaluated in a neutropenic mouse thigh infection model against S. aureus ATCC 33591. For the study, mice challenged with S. aureus ATCC 33591 were intravenously administered two 5 mg/kg, 10 mg/kg, 20 mg/kg and 30 mg/kg doses of the compound of Formula (III) at 2 and 4 hours post-infection, or vancomycin as a single dose of 50 mg/kg as a control. The bacterial load in the thigh at 26 hours post-infection was measured.

In the case of `CN[C@H](CC(C)C)C(=O)N[C@H]1C(=O)N[C@@H](CC(N)=O)C(=O)N[C@H]2C(=O)N[C@H]3C(=O)N[C@H](C(=O)N[C@H](C(=O)O)c4cc(O)cc(O)c4-c4cc3ccc4O)[C@H](O)c3ccc(c(Cl)c3)Oc3cc2cc(c3O[C@@H]2O[C@H](CO)[C@@H](O)[C@H](O)[C@H]2O[C@H]2C[C@](C)(N)[C@H](O)[C@H](C)O2)Oc2ccc(cc2Cl)[C@H]1O` [vancomycin], the survival (MRSA ATCC 33591) is reported as “all survived”, the “CFU reduction from the 2 hour infection controls” value (S. aureus ATCC 33591) is reported as 0.54 log10 CFU and the “CFU reduction from the 26 hour infection controls” value (S. aureus ATCC 33591) is reported as 3.65 log10 CFU.
